According to patent US20250073209A1, “COVALENT TARGETING OF RhoA FOR CANCER THERAPY” (The University of Hong Kong, priority 2023, published 2025):

Key:
CRC xenografts = experiment: H&E and immunohistochemistry on tissues of nude mice with CRC xenografts; assay type: in vivo, mouse
From the text: FIGS. 14A and 14B are graphs showing immunohistochemistry staining scores for the images of H&E and immunohistochemistry staining of Ki67 (FIG. 14A) and cleaved caspase-3 staining (FIG. 14B) of tumor tissues from the vehicle- or CL16-treated mice. FIGS. 14C and 14D are graphs showing immunohistochemistry staining scores for the images of H&E, Ki67 (FIG. 14C) and cleaved caspase-3 (FIG. 14D) staining of tumor tissues from the vehicle- or CL16-treated mice with HT29 xenografts.
After confirming the anticancer properties of CL16 on CRC cells and RhoA Cys16 as its primary molecular target, the anticancer effect of CL16 in vivo was studied.

[1] = test system: HT29 cells expressing RhoA WT; experiment: Wound healing assay on HT29 cells expressing RhoA WT; assay type: cell-based, human; conditions: 48 h
Experimental: For wound healing assay, HT29 cells were seeded in 90% confluency, a wound was scratched using a P-20 tip the next day. Cell debris was washed with PBS then aspirated. Then, complete DMEM medium with CL16 or Rhosin with corresponding concentration was added to the cells. Wound closure was recorded every 24 hours under light microscope with 10× objective and measurement of wound area was made by ImageJ.
The effects of CL16 in HT29 cells expressing RhoA WT protein and HT29 cells with RhoA C16 Å knock-in by CRISPR-Cas9 were investigated, respectively, to validate the molecular mechanism of RhoA inhibition and anti-cancer properties from CL16. […] HT29 cells expressing RhoA WT or C16 Å protein were incubated with solvent vehicle, CL16 or Rhosin in complete medium for 24 h. The cells were then washed, lysed, subjected to rhotekin pull-down and immunoblotted. […] Wound healing assay on HT29 cells expressing RhoA WT or C16 Å protein were incubated with solvent vehicle, CL16 or Rhosin in complete medium for 48 h (FIGS. 19A and 19B).

orthotopic SL4 CRC = experiment: Immunocompetent orthotopic mouse CRC model (SL4 intracecal); assay type: in vivo
From the text: FIG. 13B is a graph showing the weight of tumors from the mice treated with vehicle (n=7) or CL16 (n=8) at the end point of the investigation of CL16 treatment. FIGS. 13C-13H are graphs showing the scores of the immunohistochemistry staining of CD3 (FIG. 13C), CD4 (FIG. 13D), CD8 (FIG. 13E), Ki67 (FIG. 13F), cleaved caspase-3 (FIG. 13G) and VEGFR2 (FIG. 13H) on tumor tissues from the vehicle- or CL16-treated mice, FIG. 131 is a graph showing the changes in the body weight of mice with orthotopic SL4 CRC model treated with solvent vehicle or CL16 through i.p. injection. Antitumor effects of CL16 in an immunocompetent, orthotopic mouse CRC model, which was established by the inoculation of mouse CRC cells, SL4, intracecally were examined (FIG. 20). […] Immunohistochemistry staining of CD3, CD4, CD8, Ki67 was conducted, with cleaved caspase-3 and VEGFR2 on tumor tissues from the vehicle- or CL16-treated mice. […] To the best of our knowledge, this is the first reported study showing an increase in immunity through RhoA inhibition in CRC cells by a small molecule compound.

Structure (SMILES): O=C(CCl)N1N=C(c2cc3ccccc3o2)CC1c1ccco1 (centres unmarked) [CL16]
- H&E staining of major organs (CRC xenografts; CL16-treated mice): no observable damages on major organs
- Ki67 immunohistochemistry on tumor tissues (CRC xenografts; CL16-treated vs solvent): reduction in Ki67
- cleaved caspase-3 level in tumor tissues (CRC xenografts; CL16-treated vs vehicle): elevated cleaved caspase-3 level
- cell migration [1]: decrease in cell migration
- body weight (orthotopic SL4 CRC; i.p. injection): no significant changes in the body weight
- tumor weight (orthotopic SL4 CRC; i.p. injection, end point): significantly lower tumor weight
- organ damage in kidney tissue (orthotopic SL4 CRC; treated mice): no organ damages in the kidney tissue
- Ki67 in tumor tissues (orthotopic SL4 CRC; treated vs vehicle): decrease in Ki67
- cleaved caspase-3 immunohistochemistry in tumor tissues (orthotopic SL4 CRC; treated vs vehicle): elevated level
- CD3 immunohistochemistry of tumor tissues (orthotopic SL4 CRC; tumor tissues): increases
- CD4 immunohistochemistry of tumor tissues (orthotopic SL4 CRC; tumor tissues): increases
- CD8 immunohistochemistry of tumor tissues (orthotopic SL4 CRC; tumor tissues): increases
- VEGFR2 level, immunohistochemistry (orthotopic SL4 CRC; tumor tissues): decrease in VEGFR2 level
- tumor metastasis to liver (orthotopic SL4 CRC; vs control mice): prohibited the tumor metastasis
